According to ChEMBL document CHEMBL1201862, “PubChem BioAssay data set” (2004):
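Where inhibition never reached the appropriate level, the endpoint shown equals the highest concentration tested. Otherwise, values were interpolated linearly from a five-concentration, 48-hour dose response in 96-well plates. At the GI50, growth is halved.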 The source made the active and inactive calls. No stated cut-off is given here; in the data, active = GI50 up to about 1.1 µM and inactive = higher.

What was measured:
Experiment in all cases: NCI anticancer screen, dose series, 48 h
SK-MEL-2 = system: SK-MEL-2
SNB-75 = system: SNB-75
RXF 393 = system: RXF 393
HOP-92 = system: HOP-92
NCI-H522 = system: NCI-H522
NCI-H460 = system: NCI-H460
SN12C = system: SN12C
CAKI-1 = system: CAKI-1
EKVX = system: EKVX
NCI-H226 = system: NCI-H226
786-0 = system: 786-0
K562 = system: K562
COLO 205 = system: COLO 205
M19-MEL = system: M19-MEL
UACC-62 = system: UACC-62
SK-MEL-28 = system: SK-MEL-28
UO-31 = system: UO-31
SF-268 = system: SF-268
LXFL 529 = system: LXFL 529
HOP-62 = system: HOP-62
RPMI-8226 = system: RPMI-8226
DMS-114 = system: DMS-114
HCT-15 = system: HCT-15
LOX IMVI = system: LOX IMVI
NCI-H23 = system: NCI-H23
HOP-18 = system: HOP-18
SF-539 = system: SF-539
U-251 = system: U-251
KM-20L2 = system: KM-20L2
OVCAR-3 = system: OVCAR-3
SNB-78 = system: SNB-78
DMS-273 = system: DMS-273
HCT-116 = system: HCT-116
MOLT-4 = system: MOLT-4
HCC 2998 = system: HCC 2998
RXF 631 = system: RXF 631
CCRF-CEM = system: CCRF-CEM
DLD-1 = system: DLD-1
OVCAR-4 = system: OVCAR-4
Malme-3M = system: Malme-3M
OVCAR-8 = system: OVCAR-8
HL-60 = system: HL-60
SK-OV-3 = system: SK-OV-3
SR = system: SR
OVCAR-5 = system: OVCAR-5
SW-620 = system: SW-620
HT-29 = system: HT-29
ACHN = system: ACHN
A549 = system: A549
M14 = system: M14
SF-295 = system: SF-295
Hs-578T = system: Hs-578T
UACC-257 = system: UACC-257
PC-3 = system: PC-3
A498 = system: A498
XF498 = system: XF498
SNB-19 = system: SNB-19
TK-10 = system: TK-10
MDA-N = system: MDA-N
MDA-MB-435 = system: MDA-MB-435
KM12 = system: KM12
NCI/ADR-RES = system: NCI/ADR-RES
MDA-MB-231 = system: MDA-MB-231
DU-145 = system: DU-145
BT-549 = system: BT-549
MCF7 = system: MCF7
T47D = system: T47D
SK-MEL-5 = system: SK-MEL-5
IGROV-1 = system: IGROV-1

O=C(O/N=C1\CCCC\C1=C/c1ccccc1)c1ccc([N+](=O)[O-])cc1
GI50 (SK-MEL-2): > 100000 nM (inactive)
GI50 (SNB-75): 41700 nM (inactive)
GI50 (RXF 393): > 100000 nM (inactive)
GI50 (HOP-92): > 100000 nM (inactive)
GI50 (NCI-H522): 69800 nM (inactive)
GI50 (NCI-H460): > 100000 nM (inactive)
GI50 (SN12C): > 100000 nM (inactive)
GI50 (CAKI-1): > 100000 nM (inactive)
GI50 (EKVX): > 100000 nM (inactive)
GI50 (NCI-H226): > 100000 nM (inactive)
GI50 (786-0): 98600 nM (inactive)
GI50 (K562): 74100 nM (inactive)
GI50 (COLO 205): > 100000 nM (inactive)
GI50 (M19-MEL): > 100000 nM (inactive)
GI50 (UACC-62): > 100000 nM (inactive)
GI50 (SK-MEL-28): > 100000 nM (inactive)
GI50 (UO-31): 98400 nM (inactive)
GI50 (SF-268): > 100000 nM (inactive)
GI50 (LXFL 529): 54000 nM (inactive)
GI50 (HOP-62): > 100000 nM (inactive)
GI50 (RPMI-8226): > 100000 nM (inactive)
GI50 (DMS-114): 61900 nM (inactive)
GI50 (HCT-15): > 100000 nM
GI50 (LOX IMVI): > 100000 nM (inactive)
GI50 (NCI-H23): 87500 nM (inactive)
GI50 (HOP-18): > 100000 nM (inactive)
GI50 (SF-539): 41300 nM (inactive)
GI50 (U-251): 86300 nM (inactive)
GI50 (KM-20L2): > 100000 nM (inactive)
GI50 (OVCAR-3): 42100 nM (inactive)
GI50 (SNB-78): > 100000 nM (inactive)
GI50 (DMS-273): > 100000 nM (inactive)
GI50 (HCT-116): > 100000 nM (inactive)
GI50 (MOLT-4): > 100000 nM (inactive)
GI50 (HCC 2998): > 100000 nM (inactive)
GI50 (RXF 631): > 100000 nM (inactive)
GI50 (CCRF-CEM): > 100000 nM (inactive)
GI50 (DLD-1): 80000 nM (inactive)
GI50 (OVCAR-4): 33100 nM (inactive)
GI50 (Malme-3M): > 100000 nM (inactive)
GI50 (OVCAR-8): > 100000 nM (inactive)
GI50 (HL-60): 76900 nM (inactive)
GI50 (SK-OV-3): > 100000 nM (inactive)
GI50 (SR): > 100000 nM (inactive)
GI50 (OVCAR-5): > 100000 nM (inactive)
GI50 (SW-620): > 100000 nM (inactive)
GI50 (HT-29): > 100000 nM (inactive)
GI50 (ACHN): 64400 nM (inactive)
GI50 (A549): 88500 nM (inactive)
GI50 (M14): > 100000 nM (inactive)
GI50 (SF-295): 69800 nM (inactive)

CCC1=C(CC2NCCc3ccccc32)CC2c3cc(OC)c(OC)cc3CCN2C1 (configuration not stated)
GI50 (SK-MEL-2): 603 nM (active)
GI50 (SNB-75): 531 nM (active)
GI50 (Hs-578T): 440 nM (active)
GI50 (RXF 393): 635 nM (active)
GI50 (HOP-92): 675 nM (active)
GI50 (NCI-H522): 316 nM (active)
GI50 (NCI-H460): 300 nM (active)
GI50 (SN12C): 500 nM (active)
GI50 (UACC-257): 1020 nM (active)
GI50 (CAKI-1): 473 nM (active)
GI50 (EKVX): 305 nM (active)
GI50 (PC-3): 333 nM (active)
GI50 (NCI-H226): 757 nM (active)
GI50 (786-0): 338 nM (active)
GI50 (K562): 286 nM (active)
GI50 (A498): 830 nM (active)
GI50 (XF498): 800 nM (active)
GI50 (M19-MEL): 627 nM (active)
GI50 (UACC-62): 1290 nM (inactive)
GI50 (SNB-19): 614 nM (active)
GI50 (TK-10): 728 nM (active)
GI50 (SK-MEL-28): 1160 nM (inactive)
GI50 (MDA-N): 452 nM (active)
GI50 (UO-31): 736 nM (active)
GI50 (SF-268): 719 nM (active)
GI50 (LXFL 529): 995 nM (active)
GI50 (HOP-62): 627 nM (active)
GI50 (RPMI-8226): 392 nM (active)
GI50 (MDA-MB-435): 327 nM (active)
GI50 (KM12): 443 nM (active)
GI50 (HCT-15): 552 nM
GI50 (LOX IMVI): 359 nM (active)
GI50 (NCI-H23): 940 nM (active)
GI50 (NCI/ADR-RES): 1300 nM (inactive)
GI50 (SF-539): 578 nM (active)
GI50 (U-251): 550 nM (active)
GI50 (KM-20L2): 891 nM (active)
GI50 (MDA-MB-231): 358 nM (active)
GI50 (DU-145): 356 nM (active)
GI50 (OVCAR-3): 841 nM (active)
GI50 (SNB-78): 1440 nM (inactive)
GI50 (DMS-273): 618 nM (active)
GI50 (HCT-116): 307 nM (active)
GI50 (MOLT-4): 276 nM (active)
GI50 (HCC 2998): 432 nM (active)
GI50 (RXF 631): 1450 nM (inactive)
GI50 (CCRF-CEM): 357 nM (active)
GI50 (DLD-1): 2490 nM (inactive)
GI50 (OVCAR-4): 237 nM (active)
GI50 (Malme-3M): 603 nM (active)
GI50 (BT-549): 2140 nM (inactive)
GI50 (OVCAR-8): 445 nM (active)
GI50 (MCF7): 292 nM (active)
GI50 (HL-60): 847 nM (active)
GI50 (SK-OV-3): 1070 nM (active)
GI50 (SR): 342 nM (active)
GI50 (OVCAR-5): 579 nM (active)
GI50 (T47D): 514 nM (active)
GI50 (SW-620): 384 nM (active)
GI50 (HT-29): 284 nM (active)
GI50 (ACHN): 367 nM (active)
GI50 (SK-MEL-5): 585 nM (active)
GI50 (A549): 343 nM (active)
GI50 (IGROV-1): 693 nM (active)
GI50 (M14): 502 nM (active)
GI50 (SF-295): 565 nM (active)
